Values of other authors, collected in US20100143341A1, “THIENOPYRIMIDINES FOR PHARMACEUTICAL COMPOSITIONS” (DEVELOGEN AKTIENGESELLSCHAFT, priority 2005, published 2010).

What was measured:
[1] = target: human Mnk2 protein (Homo sapiens, UniProt Q9HBH9); details: described in WO 02/103361
[2] = system: phosphorylated eIF4E; details: cell culture cells transfected with Mnk2 (Mnk2a or Mnk2b) or Mnk1

Chain of human Mnk2 protein (Q9HBH9 whole entry): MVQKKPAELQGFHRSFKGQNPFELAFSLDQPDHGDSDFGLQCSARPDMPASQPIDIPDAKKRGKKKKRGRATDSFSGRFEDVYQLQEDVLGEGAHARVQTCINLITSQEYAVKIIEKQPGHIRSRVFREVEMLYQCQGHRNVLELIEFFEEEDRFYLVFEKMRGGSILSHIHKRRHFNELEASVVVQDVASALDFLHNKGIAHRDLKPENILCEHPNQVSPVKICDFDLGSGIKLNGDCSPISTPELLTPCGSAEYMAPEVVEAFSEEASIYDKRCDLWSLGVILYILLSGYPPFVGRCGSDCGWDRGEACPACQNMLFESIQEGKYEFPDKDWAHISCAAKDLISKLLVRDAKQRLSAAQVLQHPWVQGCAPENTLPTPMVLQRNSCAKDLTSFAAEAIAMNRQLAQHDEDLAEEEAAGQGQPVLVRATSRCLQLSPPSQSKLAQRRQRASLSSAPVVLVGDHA

binds the human Mnk2 protein [1] | SMILES | reduction of phosphorylated eIF4E [2]
binds | COC(=O)c1ccc(O)cc1 [4-hydroxybenzoic acid methyl ester] | 
 | Nc1ncnc2n[nH]c(Nc3ccc(F)cc3)c12 [CGP57380] | strong reduction
